Measurements: patent publication US20190098891A1, “Compositions and Methods for Biopreservation” (Augusta University Research Institute, Inc., priority 2017, published 2019)

Tested on: mouse M II oocytes
Assay: Post-rehydration survival of mouse M II oocytes after fast or slow desiccation
Format: cell-based
Excerpt: A phosphate-buffered saline (PBS) containing 0.4% bovine serum albumin (BSA) was used as a starting desiccation medium based on its simple composition that was preferable to not complicate the experimental outcome due to components of a complex desiccation medium. Further, the objective of these experiments was to test the effect of the desiccation duration without bringing specimen into a glassy state.
Slow and fast desiccation are can be achieved by adjusting several variables (e.g., temperature and flow rate of dry nitrogen gas, temperature of stage warmer, droplet size, etc.). Slow and fast desiccation of M II oocytes were achieved by changing the flow rate of dry nitrogen gas using a flowmeter (Gilmont Instruments) while performing the experiments at ambient temperature.
The fast protocol required approximately 9 minutes to desiccate a sample to a residual moisture content of 5% while the same residual moisture content was obtained in ca. 20 minutes in the case of slow desiccation. […]
The residual moisture content (% RM) of samples was determined gravimetrically using the following formula: […]

SMILES: OC[C@H]1O[C@H](O[C@H]2O[C@H](CO)[C@@H](O)[C@H](O)[C@H]2O)[C@H](O)[C@@H](O)[C@@H]1O [trehalose]
- desiccation tolerance: improves the desiccation tolerance
